Drawing on patent publication US11001569B2, “6-membered heteroaromatic substituted cyanoindoline derivatives as NIK inhibitors” (Janssen Pharmaceutica NV, priority 2016, dated 2021), this text covers IC50 and melting point for 14 molecules.

The term melting point denotes the temperature of the solid-liquid transition.

Data set [1] has as its target recombinant human NF-kappaB-inducing Kinase (NIK/MAP3K14) (Homo sapiens, UniProt Q99558). Kind of data set: Inhibition of auto-phosphorylation of recombinant human NIK/MAP3K14 activity (AlphaScreen). In kind it is biochemical. The conditions noted are these: 25 microM ATP, averaged over all measurements on all batches. A general note: In Alpha technology, singlet oxygen from a donor bead excites a nearby acceptor bead.

Data set [2] deals with P-IKKα levels in L363 (NIK translocated multiple myeloma) cells. Kind of data set: Effect of compounds on P-IKKα levels in L363 cells (Mesoscale sandwich immuno-assay). The settings on record: Homo sapiens, L-363, 2 h, 2 hr treatment, averaged values, read-out: Inhibition of pIKKα_L-363 (IC50 (nM)). In kind it is cell-based, human. An outline of the steps:
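BAFF-stimulated (1 μg/ml stock) L363 cells preincubated 24 hr at 37° C, then treated 2 hr with compound (final 1% DMSO, 8-point 1:3 dilutions). Lysate P-IKKα measured by Mesoscale sandwich immunoassay; IC50 from sigmoidal fit of % inhibition versus log concentration.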

Data set [3] concerns JJN-3 (NIK translocated) multiple myeloma cells. Nature of the data set: Antiproliferative activity on JJN-3 multiple myeloma cells (CellTiter-Glo). Type of data set: cell-based, human. The conditions noted are these: Homo sapiens, JJN-3, 96 h, JJN-3 (NIK translocated) cells, 96 hr treatment, averaged values, read-out: JJN-3 Proliferation inhibition (IC50 (nM)). An outline of the steps:
(§1)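 Cells plated at 15000 (JJN3) or 20000 (KMS12BM) per well and treated 96 h at 37° C, 5% CO2, final DMSO 0.3%, 9-point 1:3 dilutions. Viability by CellTiter-Glo luminescence; time-zero blank subtracted, growth expressed as percent of untreated control.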

In data set [4] the test system is KMS12-BM (NIK WT) multiple myeloma cells. Nature of the data set: Antiproliferative activity on KMS12-BM multiple myeloma cells (CellTiter-Glo). The conditions noted are these: Homo sapiens, KMS-12-BM, 96 h, 96 hr treatment, averaged values, read-out: KMS-12 Proliferation inhibition (IC50 (nM)). Type of data set: cell-based, human. An outline of the steps:
as §1
A general note: In ATP-based viability assays light output follows the ATP content of the culture.

Sequence of recombinant human NF-kappaB-inducing Kinase (NIK/MAP3K14) (Q99558 whole entry): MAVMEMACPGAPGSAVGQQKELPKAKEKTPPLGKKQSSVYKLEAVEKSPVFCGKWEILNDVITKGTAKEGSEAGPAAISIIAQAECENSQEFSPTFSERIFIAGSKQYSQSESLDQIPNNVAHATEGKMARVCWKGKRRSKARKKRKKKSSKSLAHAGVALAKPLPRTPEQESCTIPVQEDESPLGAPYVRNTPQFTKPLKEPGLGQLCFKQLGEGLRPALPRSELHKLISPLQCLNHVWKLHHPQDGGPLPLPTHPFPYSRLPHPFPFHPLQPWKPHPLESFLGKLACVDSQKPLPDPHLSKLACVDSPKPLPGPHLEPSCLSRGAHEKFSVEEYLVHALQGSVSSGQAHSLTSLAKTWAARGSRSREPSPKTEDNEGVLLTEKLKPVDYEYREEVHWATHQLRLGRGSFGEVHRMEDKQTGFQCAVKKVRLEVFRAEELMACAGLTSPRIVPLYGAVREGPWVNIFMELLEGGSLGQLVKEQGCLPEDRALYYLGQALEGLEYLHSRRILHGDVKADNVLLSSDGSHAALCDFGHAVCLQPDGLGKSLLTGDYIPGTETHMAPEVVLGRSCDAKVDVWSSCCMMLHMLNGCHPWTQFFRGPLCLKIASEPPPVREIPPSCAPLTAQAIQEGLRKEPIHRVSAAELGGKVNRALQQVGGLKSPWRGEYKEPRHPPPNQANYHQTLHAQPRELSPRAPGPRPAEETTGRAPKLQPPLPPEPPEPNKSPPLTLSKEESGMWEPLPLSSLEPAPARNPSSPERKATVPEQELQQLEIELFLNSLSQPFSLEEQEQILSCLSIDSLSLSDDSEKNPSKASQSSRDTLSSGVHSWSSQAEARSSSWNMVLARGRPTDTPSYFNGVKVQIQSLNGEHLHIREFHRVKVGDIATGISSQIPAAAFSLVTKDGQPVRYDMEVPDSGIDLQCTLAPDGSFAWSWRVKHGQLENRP

As for `Cc1cnc(CO)cc1Nc1nccc(-c2cc(C#N)c3c(c2)[C@@](C)(CO)CN3)n1` [Compound 156], the melting point came out at 245 °C. Besides, the IC50 in data set [1] is 2.3 nM. For the same molecule, the IC50 in data set [2] is 6.3 nM. For the same molecule, the IC50 in data set [3] amounted to 105 nM. Also, the IC50 in data set [4] was approximately 6460 nM.

Take `Cc1cc(Nc2nccc(-c3cc(C#N)c4c(c3)[C@@](C)(CO)CN4)n2)c(OC(C)C)nc1CCN1CC(F)C1` [Compound 157]: the melting point is 173 °C. In data set [1], the IC50 stood at 9.3 nM. In data set [2], the IC50 turned out to be 25.7 nM. The IC50 in data set [3] is 62 nM. In addition, the IC50 in data set [4] was more than 10000 nM.

`Cc1cc(Nc2nccc(-c3cc(C#N)c4c(c3)[C@@](C)(CO)CN4)n2)c(C)nc1OCC1(C)COC1` [Compound 159] had a melting point of 179 °C. Also, in data set [1], the IC50 came out at 5.6 nM. Also, in data set [2], the IC50 was 5.9 nM. Also, in data set [3], the IC50 is 89 nM. In data set [4], the IC50 is more than 10000 nM.

As to `Cc1cc(Nc2nccc(-c3cc(C#N)c4c(c3)[C@@](C)(CO)CN4)n2)c(C)nc1OCC1COC1` [Compound 160], the melting point stood at 189 °C. Besides, the IC50 in data set [1] came out at 3.9 nM. Also, the IC50 in data set [2] was determined as 2.1 nM. In data set [3], the IC50 stood at 115 nM. Further, the IC50 in data set [4] is more than 10000 nM.

Molecule `COc1cnc(C)cc1Nc1nccc(-c2cc(C#N)c3c(c2)[C@@](C)(CO)CN3)n1` [Compound 162] returned a melting point of more than 260 °C. Further, the IC50 in data set [1] amounted to 3 nM. In addition, in data set [2], the IC50 is 1.3 nM. In addition, the IC50 in data set [3] worked out at 60 nM. Besides, in data set [4], the IC50 was more than 10000 nM.

As to `Cc1ncc(C2CCN(C)CC2)cc1Nc1nccc(-c2cc(C#N)c3c(c2)[C@@](C)(CO)CN3)n1` [Compound 164], the melting point came out at 121 °C. For the same molecule, the IC50 in data set [1] amounted to 102 nM. In data set [2], the IC50 came out at 1180 nM. In data set [3], the IC50 amounted to 1180 nM. In addition, the IC50 in data set [4] stood at 1660 nM.

`Cc1cc(Nc2nccc(-c3cc(C#N)c4c(c3)[C@@](C)(CO)CN4)n2)c(C)cn1` [Compound 167] yielded a melting point of 263 °C. Moreover, the IC50 in data set [1] worked out at 1.7 nM. Besides, the IC50 in data set [2] came out at 2.8 nM. Further, the IC50 in data set [3] was 30 nM. The IC50 in data set [4] was more than 10000 nM.

For the molecule `COc1nc(C)c(Nc2nccc(-c3cc(C#N)c4c(c3)[C@@](C)(CO)CN4)n2)cc1C` [Compound 168], the melting point worked out at 260 °C. Moreover, the IC50 in data set [1] was determined as 3 nM. For the same molecule, in data set [2], the IC50 was 2.4 nM. Besides, the IC50 in data set [3] was 39 nM. Also, in data set [4], the IC50 was more than 10000 nM.

As to `Cc1ncc(CO)cc1Nc1nccc(-c2cc(C#N)c3c(c2)[C@@](C)(CO)CN3)n1` [Compound 169], the melting point is more than 260 °C. Moreover, the IC50 in data set [1] turned out to be 2.7 nM. The IC50 in data set [2] turned out to be 9.9 nM. Further, the IC50 in data set [3] was found to be 263 nM. Moreover, the IC50 in data set [4] stood at 4900 nM.

With `Cc1cnc(C#N)cc1Nc1nccc(-c2cc(C#N)c3c(c2)[C@@](C)(CO)CN3)n1` [Compound 170], the melting point is 279 °C. The IC50 in data set [1] is 1.1 nM. Further, in data set [2], the IC50 amounted to 1 nM. Moreover, the IC50 in data set [3] was 5 nM. In addition, in data set [4], the IC50 was more than 10000 nM.

In turn, `Cc1cnc(C2CCOCC2)c(Nc2nccc(-c3cc(C#N)c4c(c3)[C@@](C)(CO)CN4)n2)c1` [Compound 173] returned a melting point of 225 °C. Moreover, in data set [1], the IC50 was 15.1 nM. Moreover, the IC50 in data set [2] amounted to 69.2 nM. Besides, the IC50 in data set [3] was 933 nM. Also, the IC50 in data set [4] was more than 10000 nM.

In turn, `COCCCc1ncc(C)cc1Nc1nccc(-c2cc(C#N)c3c(c2)[C@@](C)(CO)CN3)n1` [Compound 177] showed a melting point of 115 °C. Also, in data set [1], the IC50 amounted to 5.5 nM. In data set [2], the IC50 came out at 21.4 nM. Also, the IC50 in data set [3] came out at 205 nM. Besides, the IC50 in data set [4] is more than 10000 nM.

The molecule `Cc1cnc(CCNC2CC2)c(Nc2nccc(-c3cc(C#N)c4c(c3)[C@@](C)(CO)CN4)n2)c1` [Compound 182] gave a melting point of 156 °C. Further, in data set [1], the IC50 came out at 15.1 nM. In addition, the IC50 in data set [2] came to 110 nM. Besides, the IC50 in data set [3] is 49 nM. Also, the IC50 in data set [4] is more than 10000 nM.

As for `COc1ncc(C(F)(F)F)cc1Nc1nccc(-c2cc(C#N)c3c(c2)[C@@](C)(CO)CN3)n1` [Compound 183], the melting point is 209 °C. In addition, the IC50 in data set [1] was determined as 15.8 nM. Besides, in data set [2], the IC50 came to 40.7 nM. Moreover, in data set [3], the IC50 turned out to be 63 nM. In data set [4], the IC50 was more than 10000 nM.
